Results on 3 molecules are retold here after patent US12692269B2, “Therapeutic compounds” (Genentech, Inc., priority 2019, dated 2026).

Common to all, as to type: binding
The target in test [1] is TEAD4 YAP50-100 (Homo sapiens, UniProt Q15561). Nature of the test: TEAD4-YAP HTRF (TR-FRET) protein-protein interaction assay. The following applies: TEAD4, YAP peptide 50-100, HTRF; for EC50: read-out: TEAD4 YAP50-100 HTRF combined: EC50. The method, boiled down: (§1)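 His-tagged TEAD YAP-binding domain (aa 217-447) pre-bound to Eu anti-His tracer, incubated with compound 30 min, then biotinylated YAP (aa 50-100) or TAZ (aa 13-57) peptide with streptavidin-XL665 added for 60 min at room temperature. TR-FRET read at 665/615 nm; IC50 or EC50 from four-parameter fit.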

Test [2] deals with TEAD2 TAZ (amino acids 13-57) (Homo sapiens, UniProt Q15562). As to the kind of experiment: TEAD2-TAZ HTRF (TR-FRET) protein-protein interaction assay. The conditions noted are these: for TEAD2 TAZ HTRF combined: Max % Inhibition: TEAD2, TAZ peptide; for EC50: TEAD2-TAZ HTRF, TR-FRET 665 nm/615 nm, read-out: TEAD2 TAZ HTRF combined: EC50. The method, boiled down: as §1
On the technique in general: Time-resolved FRET reads energy transfer from a long-lived donor to a nearby acceptor.

The target of test [3] is TEAD3 YAP50-100 (Homo sapiens, UniProt Q99594). Nature of the test: TEAD3-YAP HTRF (TR-FRET) protein-protein interaction assay. The following applies: TEAD3, YAP peptide 50-100, HTRF; for EC50: read-out: TEAD3 YAP50-100 HTRF combined: EC50. The method, boiled down: as §1
In test [4] the target is TEAD3 TAZ (amino acids 13-57) (Homo sapiens, UniProt Q99594). As to the kind of experiment: TEAD3-TAZ HTRF (TR-FRET) protein-protein interaction assay. The following applies: for TEAD3 TAZ HTRF combined: Max % Inhibition: TEAD3, TAZ peptide; for EC50: TEAD3-TAZ HTRF, TR-FRET 665 nm/615 nm, read-out: TEAD3 TAZ HTRF combined: EC50. The method, boiled down: as §1
The target of test [5] is TEAD1 TAZ (amino acids 13-57) (Homo sapiens, UniProt P28347). Nature of the test: TEAD1-TAZ HTRF (TR-FRET) protein-protein interaction assay. The following applies: for TEAD1 TAZ HTRF combined: Max % Inhibition: TEAD1, TAZ peptide; for EC50: TEAD1-TAZ HTRF, TR-FRET 665 nm/615 nm, read-out: TEAD1 TAZ HTRF combined: EC50. The method, boiled down: as §1
Test [6] deals with TEAD4 TAZ (amino acids 13-57) (Homo sapiens, UniProt Q15561). Nature of the test: TEAD4-TAZ HTRF (TR-FRET) protein-protein interaction assay. The conditions noted are these: for TEAD4 TAZ HTRF combined: Max % Inhibition: TEAD4, TAZ peptide; for EC50: TEAD4-TAZ HTRF, TR-FRET 665 nm/615 nm, read-out: TEAD4 TAZ HTRF combined: EC50. In a few lines: as §1
For test [7], the target named is TEAD1 YAP50-100 (Homo sapiens, UniProt P28347). Nature of the test: TEAD1-YAP HTRF (TR-FRET) protein-protein interaction assay. The following applies: TEAD1, YAP peptide 50-100, HTRF; for EC50: read-out: TEAD1 YAP50-100 HTRF combined: EC50. The method, boiled down:
as §1

The target in test [8] is TEAD2 YAP50-100 (Homo sapiens, UniProt Q15562). As to the kind of experiment: TEAD2-YAP HTRF (TR-FRET) protein-protein interaction assay. The conditions noted are these: TEAD2, YAP peptide 50-100, HTRF; for EC50: read-out: TEAD2 YAP50-100 HTRF combined: EC50. In a few lines:
as §1

Structures are written as SMILES.

TEAD3 TAZ (amino acids 13-57), sequence (Q99594 173-435 limits assumed): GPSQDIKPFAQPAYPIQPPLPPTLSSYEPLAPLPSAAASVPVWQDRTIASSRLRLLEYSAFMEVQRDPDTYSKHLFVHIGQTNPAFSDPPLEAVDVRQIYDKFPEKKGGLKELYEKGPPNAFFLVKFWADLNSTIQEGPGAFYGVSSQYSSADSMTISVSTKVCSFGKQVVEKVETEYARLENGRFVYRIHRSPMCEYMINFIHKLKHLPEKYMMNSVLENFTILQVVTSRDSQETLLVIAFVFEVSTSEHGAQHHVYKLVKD
TEAD3 YAP50-100, sequence (Q99594 173-435 limits assumed): as above
TEAD1 TAZ (amino acids 13-57), sequence (P28347 167-426 limits assumed): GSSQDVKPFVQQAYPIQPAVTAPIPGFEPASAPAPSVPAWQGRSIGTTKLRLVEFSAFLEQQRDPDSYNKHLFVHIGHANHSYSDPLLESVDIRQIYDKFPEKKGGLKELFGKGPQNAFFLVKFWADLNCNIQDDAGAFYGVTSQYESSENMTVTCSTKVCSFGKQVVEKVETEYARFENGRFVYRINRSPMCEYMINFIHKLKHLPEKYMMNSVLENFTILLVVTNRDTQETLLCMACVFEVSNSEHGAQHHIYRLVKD
TEAD1 YAP50-100, sequence (P28347 167-426 limits assumed): as above
TEAD4 YAP50-100, sequence (Q15561 217-434 limits assumed): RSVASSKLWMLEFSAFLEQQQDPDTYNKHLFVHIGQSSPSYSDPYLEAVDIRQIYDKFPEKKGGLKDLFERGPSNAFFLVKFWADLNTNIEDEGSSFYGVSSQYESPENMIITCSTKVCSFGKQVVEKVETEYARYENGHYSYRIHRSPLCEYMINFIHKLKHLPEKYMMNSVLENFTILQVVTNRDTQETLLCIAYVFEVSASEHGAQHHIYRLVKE
TEAD4 TAZ (amino acids 13-57), sequence (Q15561 217-434 limits assumed): as above
TEAD2 YAP50-100, sequence (Q15562 217-447): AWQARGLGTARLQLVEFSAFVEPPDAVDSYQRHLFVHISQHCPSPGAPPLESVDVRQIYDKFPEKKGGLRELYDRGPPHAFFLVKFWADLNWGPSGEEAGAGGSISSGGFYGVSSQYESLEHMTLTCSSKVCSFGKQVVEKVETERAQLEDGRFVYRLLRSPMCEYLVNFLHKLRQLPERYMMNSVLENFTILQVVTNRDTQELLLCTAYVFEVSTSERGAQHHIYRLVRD
TEAD2 TAZ (amino acids 13-57), sequence (Q15562 217-447): as above

As a reminder, the EC50 is the concentration giving half of the maximal effect. For the molecule `C[C@@H]1[C@H](CF)CN1C(=O)c1c(C(=O)N(C)C)nn2c(=O)cc(-c3ccc(C4CCCCC4)cc3)[nH]c12` [Compound 6, 5-(4-Cyclohexylphenyl)-3-((2R,3R)-3-(fluoromethyl)-2-methylazetidine-1-carbonyl)-N,N-dimethyl-7-oxo-4,7-dihydropyrazolo[1,5-a]pyrimidine-2-carboxamide], in test [1], the “TEAD4 YAP50-100 HTRF combined: Max % Inhibition” value is listed as 17.0% and the concentration for a half-maximal effect (EC50) came out at 19.5 µM. Also, in test [2], the “TEAD2 TAZ HTRF combined: Max % Inhibition” value stood at 67.5% and the EC50 stood at 0.71 µM. Moreover, in test [3], the “TEAD3 YAP50-100 HTRF combined: Max % Inhibition” value stood at 71.5% and the half-maximal effective concentration (EC50) is 4.95 µM. In test [4], the “TEAD3 TAZ HTRF combined: Max % Inhibition” value stood at 64.5% and the EC50 is 6 µM. In test [5], the “TEAD1 TAZ HTRF combined: Max % Inhibition” value stood at 70.5% and the EC50 was 0.52 µM. Besides, in test [6], the “TEAD4 TAZ HTRF combined: Max % Inhibition” value was found to be 14.0% and the EC50 was 35.5 µM. For the same molecule, in test [7], the “TEAD1 YAP50-100 HTRF combined: Max % Inhibition” value is reported as 73.0% and the concentration for a half-maximal effect (EC50) came to 0.41 µM. In test [8], the “TEAD2 YAP50-100 HTRF combined: Max % Inhibition” value amounted to 69.5% and the EC50 came to 0.71 µM.
Regarding `O=C(c1c(-c2nccnc2C(F)(F)F)nn2c(=O)cc(-c3ccc(C4CCCCC4)cc3)[nH]c12)N1CC(CF)C1` [Compound 7, 5-(4-Cyclohexylphenyl)-3-(3-(fluoromethyl)azetidine-1-carbonyl)-2-(3-(trifluoromethyl)pyrazin-2-yl)pyrazolo[1,5-a]pyrimidin-7(4H)-one], in test [1], the “TEAD4 YAP50-100 HTRF combined: Max % Inhibition” value worked out at 54.0% and the concentration giving a half-maximal response (EC50) was 0.26 µM. Moreover, in test [2], the “TEAD2 TAZ HTRF combined: Max % Inhibition” value is recorded as 67.0% and the half-maximal effective concentration (EC50) is 0.03 µM. Moreover, in test [3], the “TEAD3 YAP50-100 HTRF combined: Max % Inhibition” value is on record as 71.0% and the 50% effective concentration (EC50) was 0.35 µM. In test [4], the “TEAD3 TAZ HTRF combined: Max % Inhibition” value is given as 61.0% and the concentration for a half-maximal effect (EC50) was found to be 0.32 µM. Also, in test [5], the “TEAD1 TAZ HTRF combined: Max % Inhibition” value was 74.0% and the EC50 is 0.2 µM. For the same molecule, in test [6], the “TEAD4 TAZ HTRF combined: Max % Inhibition” value was determined as 50.0% and the EC50 came to 0.16 µM. Moreover, in test [7], the “TEAD1 YAP50-100 HTRF combined: Max % Inhibition” value came out at 78.0% and the EC50 is 0.2 µM. Also, in test [8], the “TEAD2 YAP50-100 HTRF combined: Max % Inhibition” value stood at 61.0% and the EC50 worked out at 0.04 µM.
Regarding `N#Cc1nccnc1-c1nn2c(=O)cc(-c3ccc(C4CCCCC4)cc3)[nH]c2c1C(=O)N1CC(CF)C1` [Compound 8, 3-(5-(4-Cyclohexylphenyl)-3-(3-(fluoromethyl)azetidine-1-carbonyl)-7-oxo-4,7-dihydropyrazolo[1,5-a]pyimidin-2-yl)pyrazine-2-carbonitrile], in test [1], the “TEAD4 YAP50-100 HTRF combined: Max % Inhibition” value amounted to 45.5% and the EC50 was found to be 0.47 µM. Moreover, in test [2], the “TEAD2 TAZ HTRF combined: Max % Inhibition” value worked out at 54.0% and the half-maximal effective concentration (EC50) was 0.02 µM. In test [3], the “TEAD3 YAP50-100 HTRF combined: Max % Inhibition” value came to 69.5% and the EC50 came to 0.11 µM. For the same molecule, in test [4], the “TEAD3 TAZ HTRF combined: Max % Inhibition” value worked out at 61.0% and the EC50 amounted to 0.12 µM. In addition, in test [5], the “TEAD1 TAZ HTRF combined: Max % Inhibition” value amounted to 71.0% and the EC50 amounted to 0.11 µM. Further, in test [6], the “TEAD4 TAZ HTRF combined: Max % Inhibition” value was 44.5% and the EC50 was 0.37 µM. In addition, in test [7], the “TEAD1 YAP50-100 HTRF combined: Max % Inhibition” value worked out at 77.0% and the EC50 amounted to 0.08 µM. Further, in test [8], the “TEAD2 YAP50-100 HTRF combined: Max % Inhibition” value turned out to be 51.0% and the EC50 turned out to be 0.02 µM.
